Experimental findings from ChEMBL document CHEMBL3217543, “Synthesis and biological activity evaluation of N-protected isatin derivatives as inhibitors of ICAM-1 expression on human endothelial cells” (Medchemcomm, 2011) are described below.

The structures appear in SMILES notation.

The subject of data set [1] is HUVEC. The data set can be described thus: Antiinflammatory activity in HUVEC assessed as inhibition of TNFalpha-induced ICAM1 expression at 100 uM pretreated for 2 hrs followed by TNFalpha challenge measured after 16 hrs by cell-ELISA. The data set is classed as functional. To be noted: Homo sapiens.
Data set [2] relates to HUVEC. Nature of the data set: Antiinflammatory activity in HUVEC assessed as inhibition of TNFalpha-induced ICAM1 expression pretreated for 2 hrs followed by TNFalpha challenge measured after 16 hrs by cell-ELISA. The data set is classed as functional, cell-based. To be noted: Homo sapiens.
The nature of data set [3]: Cytotoxicity against HUVEC assessed as cell viability at 100 uM after 24 hrs by MTT assay. The data set is classed as cell-based. The settings on record: human, HUVEC cells; read-out: Activity.
The subject of data set [4] is HUVEC. The data set can be described thus: Antiinflammatory activity in HUVEC assessed as inhibition of TNFalpha-induced ICAM1 expression at 100 uM pre-treated before TNFalpha addition by cell-ELISA. The data set is classed as functional, cell-based. The settings on record: Homo sapiens, TDE = time-dependent effect.
Data set [5] deals with HUVEC. Nature of the data set: Antiinflammatory activity in HUVEC assessed as inhibition of LPS-induced ICAM1 expression by cell-ELISA. It is filed as functional, cell-based. To be noted: Homo sapiens.
Data set [6] has as its system HUVEC. The data set can be described thus: Antiinflammatory activity in HUVEC assessed as inhibition of TNFalpha-induced ICAM1 expression preincubated for 0.5 to 6 hrs followed by TNFalpha challenge measured after 4 hrs by immunostaining assay. To be noted: Homo sapiens. The data set is classed as functional, cell-based.
Data set [7] deals with HUVEC. The data set can be described thus: Antiinflammatory activity in HUVEC assessed as inhibition of TNFalpha-induced ICAM1 expression measured after 6 hrs by FACS flow cytometry. The data set is classed as functional, cell-based. The settings on record: Homo sapiens.

In the case of `CCOC(=O)/C=C1/C(=O)N(CC(=O)OCC)c2ccc(F)cc21`, the inhibition at 100 µM in data set [1] was determined as 63%. The half-inhibitory concentration (IC50) in data set [2] turned out to be 40 µM. The viability at 24 h, 100 µM in data set [3] came to 97%.
On to `CCOC(=O)/C=C1/C(=O)N(CC(=O)OCC)c2ccc(Br)cc21`, for which, in data set [1], the inhibition entry was “Dose-dependent effect” and the inhibition at 100 µM amounted to 93%. Moreover, the IC50 in data set [2] came out at 10 µM. The inhibition result in data set [4] is “tde”. The viability at 24 h, 100 µM in data set [3] worked out at 97%.
For `CCOC(=O)/C=C1/C(=O)N(CC(=O)OCC)c2ccccc21`, the inhibition at 100 µM in data set [1] was 74%. Further, the 50% inhibitory concentration (IC50) in data set [2] came to 55 µM. Besides, in data set [3], the viability at 24 h, 100 µM is 98%.
`CCOC(=O)/C=C1/C(=O)N(CC(=O)OC)c2ccc(Cl)cc21`: the inhibition at 100 µM in data set [1] turned out to be 67%. Besides, the IC50 in data set [2] was determined as 40 µM. Besides, the viability at 24 h, 100 µM in data set [3] was determined as 97%.
In the case of `CCOC(=O)/C=C1/C(=O)N(CC(=O)OC)c2ccccc21`, in data set [1], the inhibition at 100 µM was 58%. Also, the IC50 in data set [2] is 70 µM. In addition, the viability at 24 h, 100 µM in data set [3] was determined as 97%.
For the molecule `CCOC(=O)/C=C1/C(=O)N(C(=O)OC)c2ccccc21`, the inhibition at 100 µM in data set [1] came out at 57%. Moreover, the IC50 in data set [2] was determined as 78 µM. The viability at 24 h, 100 µM in data set [3] worked out at 98%.
The matching figures for `CCOC(=O)/C=C1/C(=O)N(C(=O)OC)c2ccc(Br)cc21`: 88%, 25 µM and 98%.
Turning to `CCOC(=O)/C=C1/C(=O)N(C(=O)OC)c2ccc(Cl)cc21`, the inhibition at 100 µM in data set [1] was 77%. Besides, in data set [2], the IC50 is 40 µM. In data set [3], the viability at 24 h, 100 µM stood at 96%.
Regarding `CCOC(=O)/C=C1/C(=O)N(CC(=O)OCC)c2ccc(Cl)cc21`, the inhibition at 100 µM in data set [1] stood at 74%. For the same molecule, in data set [2], the IC50 was determined as 25 µM. Moreover, the viability at 24 h, 100 µM in data set [3] was determined as 96%.
With `O=C(O)Cc1ccccc1Nc1c(Cl)cccc1Cl` [DICLOFENAC], in data set [5], the half-inhibitory concentration (IC50) stood at 750 µM.
`CCOC(=O)/C=C1/C(=O)Nc2ccc(Br)cc21`: the inhibition at 100 µM in data set [1] was found to be 58%. Further, the IC50 in data set [2] turned out to be 100 µM. Moreover, the viability at 24 h, 100 µM in data set [3] was 97%.
For `CCOC(=O)/C=C1/C(=O)N(C(=O)OCC)c2ccc(Cl)cc21`, the inhibition at 100 µM in data set [1] was 83%. The IC50 in data set [2] came to 30 µM. The viability at 24 h, 100 µM in data set [3] came to 97%.
Consider `CCOC(=O)/C=C1/C(=O)Nc2ccc(Cl)cc21`, for which the inhibition at 100 µM in data set [1] is 56%. In addition, the half-inhibitory concentration (IC50) in data set [2] was 100 µM. In data set [3], the viability at 24 h, 100 µM came to 96%.
For the molecule `CCOC(=O)/C=C1/C(=O)Nc2ccccc21`, in data set [1], the inhibition at 100 µM stood at 40%. Moreover, the half-maximal inhibitory concentration (IC50) in data set [2] was greater than 100 µM. Further, the viability at 24 h, 100 µM in data set [3] was found to be 96%.
With `CCOC(=O)/C=C1/C(=O)N(C(=O)OC)c2ccc(F)cc21`, in data set [1], the inhibition at 100 µM is 61%. Further, the concentration for half-maximal inhibition (IC50) in data set [2] worked out at 70 µM. In addition, the viability at 24 h, 100 µM in data set [3] was determined as 97%.
Consider `CCOC(=O)/C=C1/C(=O)N(C(=O)OCC)c2ccccc21`, for which the inhibition at 100 µM in data set [1] amounted to 66%. Besides, the IC50 in data set [2] was 50 µM. The viability at 24 h, 100 µM in data set [3] came to 95%.
Turning to `CCOC(=O)/C=C1/C(=O)N(C(=O)OCC)c2ccc(F)cc21`, in data set [1], the inhibition at 100 µM amounted to 72%. Moreover, in data set [2], the IC50 is 53 µM. For the same molecule, the viability at 24 h, 100 µM in data set [3] came out at 96%.
For the molecule `CC(=O)N[C@@H](CS)C(=O)O` [ACETYLCYSTEINE], the concentration for half-maximal inhibition (IC50) in data set [6] was found to be 10000 µM.
In the case of `CCOC(=O)/C=C1/C(=O)Nc2ccc(F)cc21`, in data set [1], the inhibition at 100 µM was 31%. The IC50 in data set [2] was greater than 100 µM. In data set [3], the viability at 24 h, 100 µM amounted to 95%.
In the case of `CC(=O)Oc1ccccc1C(=O)O` [ASPIRIN], in data set [7], the IC50 was 5000 µM.
Take `CCOC(=O)/C=C1/C(=O)N(CC(=O)OC)c2ccc(Br)cc21`: in data set [1], the inhibition at 100 µM was determined as 81%. Further, in data set [2], the half-maximal inhibitory concentration (IC50) was 25 µM. Further, the viability at 24 h, 100 µM in data set [3] was 99%.
Consider `CCOC(=O)/C=C1/C(=O)N(CC(=O)OC)c2ccc(F)cc21`, for which the inhibition at 100 µM in data set [1] was 52%. For the same molecule, the IC50 in data set [2] came out at 75 µM. Also, the viability at 24 h, 100 µM in data set [3] was 96%.
On to `CCOC(=O)/C=C1/C(=O)N(C(=O)OCC)c2ccc(Br)cc21`, for which the inhibition at 100 µM in data set [1] worked out at 91%. Also, the IC50 in data set [2] turned out to be 15 µM. Besides, the viability at 24 h, 100 µM in data set [3] was found to be 98%.
